# Values quoted from earlier work in PMC2363746, “Phase I dose-escalation and pharmacokinetic study of a novel folate analogue AG2034” (British Journal of Cancer, 2001).
compound,measurement,setting,value
"Nc1nc2c(c(=O)[nH]1)C[C@@H](CCc1ccc(C(=O)N[C@@H](CCC(=O)O)C(=O)O)cc1)CN2 [lometrexol, (6R)-5,10-dideazatetrahydrofolate]",Unexpected toxicity in phase I studies,in vivo,myelosuppression and mucositis
same,Antitumour activity in phase I studies,"ref Ray et al, 1993",objective antitumour activity
